Key:
[1] = Stability in aqueous solution by ESI-MS; type: physicochemical; details: 50 μM, share of total intensity
Method: In order to elucidate the transformation products of hydrolysis at micromolar concentrations, the four compounds were analogously incubated at 50 μM and analysed by ESI-MS[34] in a time-dependent manner after 1.5 h, 24 h and 72 h. The four complexes of this series were quite stable over 24 h (ESI, Fig. S12 ^†), but gradually released the NQ-ligands over the course of 72 h, which was observed by the formation of characteristic metal(cymene)-dimers containing pyrazole as bridging ligands. In addition, the observation of the free 3-Morph-NQ ligand after 24 h further supported the previously established activation mechanism (ESI, Fig. S12 ^†). A mass signal, which was probably generated by in-source fragmentation corresponded to pyrazole-release. […] In general, the intensity of the intact compounds after 24 h at 50 μM corresponded to approximately 40% of the total intensity of the mass spectrum in all four cases, not accounting for ionization efficiency (Fig. 2B).
Stability Study by UV-Vis Spectroscopy […]
(§1) 80 µM. The stability of the compounds was monitored in a UV-Vis spectrophotometer (Perkin Elmer lambda 35 photometer) over 96 h by acquiring an UV-Vis spectrum every 30 mins. The percentage of the remaining intact compound was calculated by the ratio of the maximum absorbance of the tridentate complexes’ characteristic absorption band around 350– 370 nm after a given timepoint (A) compared to the one directly after dilution (A0). […]
Samples were diluted to a concentration of 2.5 µM with an organic eluent (49.5% v/v acetonitrile, 49.5% v/v methanol,1% v/v H2O), except ubiquitin containing samples which were diluted to the same concentration with acidified H2O (0.1% v/v formic acid). The samples were then analysed by flow-injection using an amazon speed ETD ion trap (Bruker Daltonics) in the positive ion mode over 0.4 min using the following experimental parameters: HV capillary ±4.5 kV, end plate offset –500 V, dry temp 180 °C, nebulizer 3 bar, dry gas 5 L min-1, scan range m/z 200–1400, target mass m/z 900, flow rate 5 µL min-1. […]

[2] = Stability study by UV-Vis spectroscopy in PBS (1% DMSO); type: physicochemical; details: 40 μM 1a/2a, 80 μM 1b/2b
Method: Stability Study by UV-Vis Spectroscopy
All four compounds were freshly diluted in PBS (1% DMSO) from a DMSO stock solution at […]
as §1

| Compound | Intact compound after 24 h, aqueous medium [1] | intact complex, UV-vis, 24 h [2] | intact complex, UV-vis, 96 h [2] |
| --- | --- | --- | --- |
| CCC1=C2[O][Ru][O]C2(n2cccn2)c2ccccc2C1=O.Cc1ccc(C(C)C)cc1 (stereo not drawn) [Compound 1a, [(3-ethyl-4-oxo-(pyrazolyl)-dihydronaphthalene)(cymene)ruthenium(II)]] | 42% | 75% | 53% |
| Cc1ccc(C(C)C)cc1.O=C1C(CN2CCOCC2)=C2[O][Ru][O]C2(n2cccn2)c2ccccc21 (stereo not drawn) [Compound 1b] | 47% | 76% | 64% |
| CCC1=C2[O][Os][O]C2(n2cccn2)c2ccccc2C1=O.Cc1ccc(C(C)C)cc1 (stereo not drawn) [Compound 2a] | 45% | 85% | 61% |

Reference: article PMC12320299 (Chemical Science, 2025)
